The values below are quoted from earlier work in patent publication US20040254092A1 (priority 2003, published 2004).

In data set [1] the test system is Mycoplasma, Chlamydia, and other pathogens.
Data set [2] has as its system SA-H and human-wheel virus type 2.
The subject of data set [3] is Poliomyelitis virus type I (PVI). The note with it: ozone density 0.13 mg/L, time 30 seconds.
For data set [4], the system named is Type-B hepatitis surface antigen (HbsAg).

Take `O=[O+][O-]` [Ozone, ozone]: the Sterilizing efficiency in data set [1] was 99.85%; in the data set on Coronaviridae, 100%; in the data set with HIV, 100%; in the data set on Coliphage ms2, 98%; in data set [2] it was 99.60%; in data set [3] it was 100%. Besides, the results for the Sterilizing efficiency (in the data set with Type-A flu virus; in data set [4]) were 99% and 99.99%, respectively.
